Eleven molecules from ChEMBL document CHEMBL1201862, “PubChem BioAssay data set” (2004) can be followed below.

Among the test systems are MDA-MB-231; HL-60; DU-145; HCC 2998; SW-620; SK-MEL-5; LOX IMVI; CAKI-1; RXF 393; HCT-15; SR; NCI-H226; A498; T47D; CCRF-CEM; Hs-578T; SK-OV-3; U-251; SF-539; UO-31.
Common to all, as to assay: NCI-60 cell line screen, 48 h

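These data come from cells grown in 96-well plates and exposed to compound for 48 hours at five concentrations. GI50 is the concentration that inhibits growth by half.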 The source made the active and inactive calls. Rule as the data show it: active = GI50 up to about 1.1 µM and inactive = higher.

`O=C(CCl)Nc1cc(Cl)c(Cl)cc1Cl`: the GI50 is 1.56 µM (inactive) in the assay with MDA-MB-231; 2.82 µM (inactive) in the assay on HL-60; 3.16 µM (inactive) in the assay on DU-145; 4.84 µM (inactive) in the assay with HCC 2998; 2.58 µM (inactive) in the assay with SW-620; 1.78 µM (inactive) with SK-MEL-5. The GI50 with LOX IMVI was 1.56 µM (inactive); in the assay with CAKI-1 it was 2.96 µM (inactive); with RXF 393, 2.65 µM (inactive); with HCT-15, 2.09 µM; with SR, 0.644 µM (active); with NCI-H226 it was 1.01 µM (active). In addition, the GI50 was 5.15 µM (inactive) with A498; 2.29 µM (inactive) with T47D; 0.966 µM (active) in the assay with CCRF-CEM; 3.4 µM (inactive) with Hs-578T; > 10 µM (inactive) with SK-OV-3; 2.01 µM (inactive) with U-251. In addition, the GI50 in the assay with SF-539 was 1.67 µM (inactive).

Regarding `Nc1ccc2nc(N)n[n+]([O-])c2c1`, the GI50 in the assay on MDA-MB-231, in the assay with HL-60, with DU-145, in the assay with SW-620, with SK-MEL-5 and in the assay with LOX IMVI was > 100 µM (inactive) each time. In addition, the GI50 is > 100 µM (inactive) in the assay with CAKI-1; over 100 µM in the assay with HCT-15; > 100 µM (inactive) with SR; > 100 µM (inactive) with UO-31; > 100 µM (inactive) in the assay with NCI-H226; > 100 µM (inactive) with A498. The GI50 in the assay with T47D, with CCRF-CEM, in the assay on Hs-578T, in the assay with SK-OV-3, in the assay with U-251 and in the assay on SF-539 was > 100 µM (inactive) in each case.

Regarding `CCOC(=O)C1C/C(C)=C(/C)SCCCS1` (stereo not given), the GI50 was > 100 µM (inactive) with MDA-MB-231; 28.6 µM (inactive) in the assay with HL-60; > 100 µM (inactive) in the assay on DU-145; > 100 µM (inactive) in the assay on HCC 2998; > 100 µM (inactive) with SW-620; 45.5 µM (inactive) in the assay with SK-MEL-5. Further, the GI50 was 68.5 µM (inactive) with LOX IMVI; > 100 µM (inactive) in the assay on RXF 393; over 100 µM in the assay with HCT-15; 65.5 µM (inactive) in the assay on SR; > 100 µM (inactive) in the assay with UO-31; > 100 µM (inactive) in the assay with NCI-H226. The GI50 was > 100 µM (inactive) in the assay on A498; 60.3 µM (inactive) in the assay on T47D; > 100 µM (inactive) with Hs-578T; > 100 µM (inactive) with SK-OV-3; > 100 µM (inactive) in the assay on U-251; > 100 µM (inactive) in the assay with SF-539.

As for `O=C(NCCCCCCNC(=O)c1cc(-c2ccccc2)nc2ccccc12)c1cc(-c2ccccc2)nc2ccccc12`, the GI50 in the assay on MDA-MB-231, in the assay with HL-60, with DU-145, in the assay on SW-620, with SK-MEL-5 and with LOX IMVI was > 100 µM (inactive) throughout. The GI50 with CAKI-1 is > 100 µM (inactive); with RXF 393 it was > 100 µM (inactive); in the assay with HCT-15, over 100 µM; in the assay on SR, > 100 µM (inactive); in the assay on UO-31 it was > 100 µM (inactive); in the assay on NCI-H226, > 100 µM (inactive). For the same molecule, the GI50 was > 100 µM (inactive) with A498; > 100 µM (inactive) in the assay on T47D; > 100 µM (inactive) in the assay with CCRF-CEM; 40.6 µM (inactive) with Hs-578T; > 100 µM (inactive) in the assay with SK-OV-3; 88.3 µM (inactive) in the assay on U-251. The GI50 in the assay on SF-539 is > 100 µM (inactive).

As for `O=S(=O)(c1ccc(/N=N/O)nc1)c1ccc2ccccc2c1`, the GI50 with MDA-MB-231 was > 100 µM (inactive); in the assay on HL-60, 47.8 µM (inactive); in the assay on DU-145, > 100 µM (inactive); in the assay with SW-620, > 100 µM (inactive); in the assay with SK-MEL-5 it was 36.8 µM (inactive); in the assay on CAKI-1, 88.5 µM (inactive). In addition, the GI50 is over 100 µM in the assay on HCT-15; > 100 µM (inactive) in the assay on SR; 23.1 µM (inactive) in the assay with UO-31; > 100 µM (inactive) with NCI-H226; > 100 µM (inactive) in the assay with A498; 40 µM (inactive) in the assay on T47D. In addition, the GI50 in the assay on CCRF-CEM is 29.3 µM (inactive); with Hs-578T, > 100 µM (inactive); in the assay on SK-OV-3, > 100 µM (inactive); in the assay on U-251, > 100 µM (inactive); in the assay with SF-539, > 100 µM (inactive).

As to `O=C(O)Cn1ccc(=O)c2c([N+](=O)[O-])cccc21`, the GI50 in the assay on MDA-MB-231, in the assay with HL-60, in the assay with DU-145, in the assay on HCC 2998, in the assay with SW-620 and in the assay with SK-MEL-5 was > 100 µM (inactive) in each case. For the same molecule, the GI50 was > 100 µM (inactive) with CAKI-1; over 100 µM in the assay on HCT-15; > 100 µM (inactive) in the assay on SR; > 100 µM (inactive) in the assay with UO-31; > 100 µM (inactive) with NCI-H226; > 100 µM (inactive) with A498. Moreover, the GI50 with T47D, with CCRF-CEM, with Hs-578T, in the assay with SK-OV-3, in the assay with U-251 and in the assay with SF-539 was > 100 µM (inactive) in each case.

Consider `COc1ccccc1NC(=O)CC(=O)N1N=C(N2c3ccccc3Sc3ccccc32)CC1c1ccccc1` (stereo not given), for which the GI50 with MDA-MB-231, in the assay on HL-60, in the assay with DU-145, with HCC 2998, in the assay with SW-620 and with SK-MEL-5 was > 100 µM (inactive) each time. Further, the GI50 with CAKI-1 is > 100 µM (inactive); in the assay on RXF 393 it was > 100 µM (inactive); with HCT-15 it was over 100 µM; in the assay with SR, > 100 µM (inactive); in the assay on UO-31, > 100 µM (inactive); in the assay on NCI-H226, > 100 µM (inactive). Besides, the GI50 in the assay on A498, with T47D, in the assay with CCRF-CEM, in the assay with Hs-578T, in the assay on SK-OV-3 and in the assay on U-251 was > 100 µM (inactive) in each case. In the assay with SF-539, the GI50 is > 100 µM (inactive).

For `COc1ccc(-c2c3c(n(C4OC(CO)C(O)C(O)C4O)c(=S)c2C#N)CC(C)(C)CC3=O)cc1` (stereo not given), the GI50 in the assay with MDA-MB-231, with HL-60, in the assay with DU-145, in the assay with HCC 2998, in the assay on SK-MEL-5 and in the assay on LOX IMVI was > 100 µM (inactive) each time. For the same molecule, the GI50 in the assay on CAKI-1 was > 100 µM (inactive); in the assay on RXF 393 it was > 100 µM (inactive); in the assay on HCT-15, over 100 µM; with SR, 74.5 µM (inactive); in the assay with UO-31 it was > 100 µM (inactive); in the assay with NCI-H226, 96.6 µM (inactive). Further, the GI50 is > 100 µM (inactive) in the assay with A498; 13.8 µM (inactive) in the assay with T47D; > 100 µM (inactive) in the assay with CCRF-CEM; > 100 µM (inactive) in the assay on Hs-578T; > 100 µM (inactive) in the assay on U-251; > 100 µM (inactive) with SF-539.

With `CCOC(=O)NC(N(C)C(C(C)C)P(=O)(OCC)OCC)(C(F)(F)F)C(F)(F)F` (stereo not given), the GI50 with MDA-MB-231 is > 100 µM (inactive); with HL-60, > 100 µM (inactive); in the assay on DU-145, > 100 µM (inactive); in the assay on SW-620 it was 4.68 µM (inactive); in the assay with SK-MEL-5 it was > 100 µM (inactive); in the assay on LOX IMVI, > 100 µM (inactive). Further, the GI50 with CAKI-1 is > 100 µM (inactive); in the assay on RXF 393, > 100 µM (inactive); with HCT-15, over 100 µM; with SR it was > 100 µM (inactive); in the assay on UO-31 it was > 100 µM (inactive); with NCI-H226, > 100 µM (inactive). Further, the GI50 with A498, in the assay on T47D, in the assay with CCRF-CEM, in the assay on Hs-578T, with U-251 and with SF-539 was > 100 µM (inactive) throughout.

In the case of `COC(=O)CCc1ccc2c(c1)CC1(C2)Cc2ccc3c(c2C1)CCC3` (stereo not given), the GI50 in the assay with MDA-MB-231 is 89.1 µM (inactive); with HL-60, 30.3 µM (inactive); with DU-145, 70 µM (inactive); with HCC 2998, 52.4 µM (inactive); in the assay on SW-620, > 100 µM (inactive); in the assay on SK-MEL-5, 34.4 µM (inactive). Further, the GI50 with LOX IMVI is > 100 µM (inactive); in the assay with RXF 393, 49.1 µM (inactive); with HCT-15, 59.2 µM; with SR it was > 100 µM (inactive); with UO-31, 32.4 µM (inactive); with NCI-H226 it was > 100 µM (inactive). Besides, the GI50 in the assay on A498 was > 100 µM (inactive); in the assay on T47D, 18.8 µM (inactive); in the assay with CCRF-CEM, 61.7 µM (inactive); with Hs-578T, 99.1 µM (inactive); in the assay with SK-OV-3, 30.4 µM (inactive); with U-251, > 100 µM (inactive). The GI50 with SF-539 is > 100 µM (inactive).

Consider `N#Cc1c(=O)c2ccccc2n2ccccc12`, for which the GI50 with MDA-MB-231 is > 100 µM (inactive); with HL-60, > 100 µM (inactive); in the assay with DU-145 it was > 100 µM (inactive); in the assay with HCC 2998, > 100 µM (inactive); in the assay on SW-620, 79.8 µM (inactive); with SK-MEL-5, > 100 µM (inactive). Moreover, the GI50 with LOX IMVI is > 100 µM (inactive); in the assay on CAKI-1, > 100 µM (inactive); in the assay on HCT-15, over 100 µM; with SR, > 100 µM (inactive); in the assay with UO-31 it was 97.9 µM (inactive); with NCI-H226, 24.9 µM (inactive). The GI50 with A498, in the assay on T47D, in the assay on CCRF-CEM, with Hs-578T and with U-251 was > 100 µM (inactive) in each case.
